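In this assay, cells in 96-well plates receive the compound at five concentrations for 48 hours. Endpoints are linearly interpolated between the surrounding concentrations. Here, GI50 denotes the concentration required for 50% inhibition of growth. TGI marks complete inhibition of growth.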

Among the data in PubChem BioAssay (NCI) are GI50 and TGI values, retold here.

Holding throughout (assay): inhibition of tumour cell growth, NCI panel, 48 h
Assay [1] has as its system SN12C renal.
In assay [2] the test system is HOP-92 NSCLC.
The subject of assay [3] is MOLT-4 leukemia.
Assay [4] has as its system HS 578T breast.
The subject of assay [5] is OVCAR-4 ovarian.
Assay [6] deals with RXF 393 renal.

On to `CCCCCCCCCCCCCCCCCCNC(=O)[C@H]1CSC(c2ccc(OC)c(F)c2)N1` (some centres undefined), for which the GI50 in assay [1] was 1.52 µM; in assay [2], 7.48 µM; in assay [3], 1.48 µM; in assay [4], 4.29 µM; in assay [5], 14 µM; in assay [6], 2.34 µM. The TGI in assay [1] was 3.39 µM; in assay [2], 28.9 µM; in assay [3] it was 9.18 µM; in assay [4], 20.3 µM; in assay [5], more than 41.3 µM; in assay [6], 5.5 µM.

On to `CC12OC(C(=O)C13CC3)C1C(=O)c3ccccc3C(=O)C12` (centres undefined), for which the GI50 was 21.8 µM in assay [2], 32 µM in assay [3], 22.6 µM in assay [4] and 10 µM in assay [6]. The TGI was 60.7 µM in assay [2], more than 100 µM in assay [3], 63.9 µM in assay [4] and 24.9 µM in assay [6].

Turning to `COC(=O)Nc1nc2ccc(C(=O)c3ccc[nH]3)cc2[nH]1`, the TGI in assay [1] was more than 100 µM; in assay [3] it was more than 100 µM; in assay [4] it was more than 100 µM; in assay [5] it was more than 100 µM; in assay [6], 4.78 µM.

For `O=C1/C(=C\c2ccc(Cl)cc2)CN(C(=S)Nc2ccccc2)C/C1=C\c1ccc(Cl)cc1`, the GI50 in assay [1] is 0.544 µM; in assay [2], 1.85 µM; in assay [3], 1.74 µM; in assay [4], 3 µM; in assay [5], 0.343 µM; in assay [6], 0.397 µM. Moreover, the TGI in assay [1] came out at 1.89 µM; in assay [2], 4.83 µM; in assay [3], 13.7 µM; in assay [4], 23.3 µM; in assay [5], 2.77 µM; in assay [6] it was 1.13 µM.

As for `CCOC(=O)c1cnc(SCc2ccc(Cl)c(Cl)c2)nc1N1CC1`, the GI50 was 4.37 µM in assay [1]; 3.27 µM in assay [3]; 2.31 µM in assay [4]; 3.17 µM in assay [5]; 4.04 µM in assay [6]. Moreover, the TGI came to 21.2 µM in assay [1]; 15 µM in assay [3]; 7.01 µM in assay [4]; 14 µM in assay [5]; 16.2 µM in assay [6].

Consider `C1CCC([PH+](C2CCCCC2)C2CCCCC2[PH+](C2CCCCC2)C2CCCCC2)CC1.[Au].[CH-]1CCCCC1C1CCCC[N-]1` (centres undefined), for which the results for the GI50 in assay [2], in assay [3] and in assay [6] were 0.241 µM, 0.366 µM and 0.278 µM, respectively. The figures for the TGI in assay [2], in assay [3] and in assay [6] were 1.14 µM, more than 100 µM and 1.18 µM, respectively.

Turning to `COc1cc2cc(Oc3ccc(NC(=O)Nc4cccc(C(F)(F)F)c4)cc3)c(C)nc2cc1OCCN1CCCCC1`, the GI50 in assay [1] is 1.66 µM; in assay [2], 1.08 µM; in assay [5] it was 1.66 µM. Also, the TGI turned out to be 3.15 µM in assay [1], 2.34 µM in assay [2] and 3.39 µM in assay [5].

Turning to `COc1cc2c(cc1OC)C(=O)C(Br)CC2` (centres undefined), the GI50 in assay [1] was 3.49 µM; in assay [2], 2.63 µM; in assay [3], 3.22 µM; in assay [4], 7.48 µM; in assay [6] it was 1.55 µM. Moreover, the TGI in assay [1] stood at 12.8 µM; in assay [2], 12.2 µM; in assay [3] it was 15 µM; in assay [4], 37.4 µM; in assay [6], 3.01 µM.

As for `COc1ccc(/C(=C/c2cc(OC)c(OC)c(OC)c2)[N+](=O)[O-])cc1`, the GI50 in assay [1] was 1.6 µM; in assay [2], 1.44 µM; in assay [4], 3.21 µM; in assay [5], 1.63 µM; in assay [6], 1.73 µM. Further, the TGI in assay [1] is 3.24 µM; in assay [2], 3.09 µM; in assay [4] it was 21.4 µM; in assay [5], 3.29 µM; in assay [6], 3.32 µM.

As for `OB([O][Hg][c]1ccccc1)[O][Hg][c]1ccccc1`, the GI50 in assay [1] was 0.266 µM; in assay [2], 0.185 µM; in assay [3], 0.177 µM; in assay [5], 0.334 µM; in assay [6], 0.229 µM. For the same compound, the TGI was found to be 0.799 µM in assay [1]; 0.528 µM in assay [2]; 0.643 µM in assay [3]; 2.01 µM in assay [5]; 0.829 µM in assay [6].

Regarding `C1=CN2C[n+]3cccc(OCc4ccccc4)c3N=C2C(OCc2ccccc2)=C1`, the TGI is 25.3 µM in assay [1]; 81.4 µM in assay [2]; 21.5 µM in assay [4]; 82.9 µM in assay [5]; more than 100 µM in assay [6].

`NC(N)=NC(CC(=O)O)c1ccccc1` (centres undefined): the TGI in assay [1], in assay [2], in assay [4], in assay [5] and in assay [6] was more than 100 µM in each case.

In the case of `Nc1ccn(C=C=CCO)c(=O)n1`, the GI50 in assay [1] was more than 1000 µM; in assay [2], more than 1000 µM; in assay [3], 38.8 µM; in assay [4] it was more than 1000 µM; in assay [5], more than 1000 µM. Also, the TGI in assay [1], in assay [2], in assay [3], in assay [4] and in assay [5] was more than 1000 µM throughout.

On to `O=C(c1cccs1)c1c(C(F)(F)F)n([O-])c2ccc(C(F)(F)F)cc2[n+]1=O`, for which the GI50 in assay [1] was 0.195 µM; in assay [2], 0.152 µM; in assay [3], 0.174 µM; in assay [5], 0.224 µM; in assay [6], 0.195 µM. In addition, the TGI was determined as 0.468 µM in assay [1]; 0.321 µM in assay [2]; 0.498 µM in assay [3]; 0.531 µM in assay [5]; 0.387 µM in assay [6].

As to `O=C1C=C[C@]2(C[C@@H](c3cccc(C(F)(F)F)c3)O[C@@H](c3cccc(C(F)(F)F)c3)O2)O1`, the GI50 in assay [1] is 2.91 µM; in assay [2], 1.97 µM; in assay [4], 12.2 µM; in assay [5], 5.24 µM; in assay [6] it was 1.67 µM. Further, the TGI in assay [1] came to 12.4 µM; in assay [2] it was 6.6 µM; in assay [4], 60.7 µM; in assay [5], 19.3 µM; in assay [6] it was 3.91 µM.
